Assay results from PMC9011347, “Small-Molecule Inhibitors Targeting Lipolysis in Human Adipocytes” (Journal of the American Chemical Society, 2022).

How the values were obtained:
Assay in all cases: TAG hydrolase assay, Expi293 lysates expressing ATGL orthologue
Type in all cases: biochemical
dog ATGL = test system: dog ATGL
Excerpt: (§1) We previously developed Atglistatin (Ai), a selective inhibitor of mouse ATGL,[31],[32] which is ineffective against human ATGL.[17] Ai acts as a competitive inhibitor targeting the minimal active domain of ATGL ranging from aa 1–254.[33] This domain is highly conserved in different mammalian species (∼90% identity, Table 1) and comprises the patatin-like domain, eponymous for all members of the patatin-like phospholipase domain-containing (PNPLA) protein family.[34] We first investigated the species selectivity of Ai by performing TAG hydrolase assays[35] with lysates from Expi293 cells expressing ATGL orthologues of different species. The activity of ATGL is strongly stimulated by the co-activator protein comparative gene identification-58 (CGI-58, also known as α/β hydrolase domain containing 5, ABHD5)[36] and can be suppressed by the inhibitory protein G0/G1 switch 2 (G0S2).[37] We therefore determined ATGL activity in the presence and absence of mouse CGI-58, mouse G0S2, and Ai. As shown in Figure 1a–i, all ATGL orthologues were expressed, enzymatically active, stimulated by mouse CGI-58, and inactivated by mouse G0S2. Ai inhibited mouse (Figure 1a), rat (Figure 1b), goat (Figure 1c), dog (Figure 1e), and marmoset ATGL (Figure 1f), but not pig (Figure 1d), rhesus monkey (Figure 1g), or human ATGL (Figure 1h).
(§2) Experimental details, materials, and methods
(§3) Expression of recombinant ATGL constructs and preparation of cell lysates. Expi293 cells were cultivated in Expi293 Expression Medium (GIBCO, Thermo Fisher Scientific, Waltham, USA) at standard conditions (37°C, 5% CO2, 95% humidified atmosphere, 125 rpm). DNA constructs containing ATGL from different species and chimeric ATGL variants in pcDNA3.1(+)myc-His C Vector were obtained from BioCat GmbH (Heidelberg, Germany). Cells were transfected with ExpiFectamine293 Transfection Kit (GIBCO) in Opti-Mem reduced serum medium (GIBCO) according to the manufacturer’s instructions. After 48 h, cells were harvested by centrifugation and washed three times with PBS. Cells were disrupted in buffer A (0.25 M sucrose, 1 mM EDTA, 1 mM dithiothreitol, 20µg/ml leupeptin, 2 µg/ml antipain, 1 µg/ml pepstatin, pH 7.0) by sonication (Virsonic 475, Virtis, Gardiner, USA). Nuclei and debris were removed by centrifugation at 1,000 g and 4°C for 10 min. Protein concentrations were determined using Bio-Rad protein assay (Bio-Rad 785, Bio-Rad Laboratories, Munich, Germany) using BSA as standard.
(§4) Expression and purification of mouse CGI-58. CGI-58 was expressed and purified as described 1. In brief, the coding sequence of mouse Cgi-58 was cloned into pHis-Sumo and co-transformed with the plasmid pTf16 expressing the chaperone Tig into E. coli BL21(DE3). Cells were cultured overnight at 37°C and 180 rpm in the presence of 40 µg/ml kanamycin and 34 µg/ml chloramphenicol. Thereafter, cells were transferred into fresh LB medium, grown until OD600 of 0.6, and expression was induced by the addition of 0.5 mM IPTG. After overnight incubation at 30°C, cells were harvested at 4,500 x g and 4°C for 20 min, washed in 1x PBS, and resuspended in lysis buffer (20 mM Tris/HCl pH 7.8, 300 mM NaCl, 30 mM imidazole, 0.1% IGEPAL CA-630, 3.5 mM β-mercaptoethanol, 20 µg/ml leupeptin, 2 µg/ml antipain and 1 µg/ml pepstatin). Cells were incubated with 1 mg/ml lysozyme at 4°C for 20 min, disrupted by sonication, and lysates were centrifuged at 30,000 x g and 4°C for 40 min. His-CGI-58 was purified from the supernatant using an ÄKTA pure system (Cytiva, Uppsala, Sweden) equipped with a 5 ml HisTrap […]
(§5) Expression and purification of mouse G0S2. Chemically competent E. coli ArcticExpress (DE3) cells were transformed with the pST50-SMT3-TEV-mG0S2-His expression plasmid, plated on LB agar plates containing 100 ampicillin, and incubated […] overnight at 37°C. The next day, 10 ml LB medium supplemented with 100 μg/ml ampicillin, 20 μg/ml gentamycin and 2% glucose were inoculated with a single colony and incubated overnight at 37°C. […]

mouse ATGL = target: T1, mouse ATGL (Mus musculus, UniProt Q8BJ56)
T1 construct: host or cells: Expi293 cells, crude lysate
Excerpt: as §1, §2, §3, §4, §5

marmoset ATGL = test system: marmoset ATGL
Excerpt: as §1, §2, §3, §4, §5

goat ATGL = test system: goat ATGL
Excerpt: as §1, §2, §3, §4, §5

rat ATGL = target: T2, rat ATGL (Rattus norvegicus, UniProt P0C548)
T2 construct: host or cells: Expi293 cells, crude lysate
Excerpt: as §1, §2, §3, §4, §5

T1 sequence (Q8BJ56 whole entry): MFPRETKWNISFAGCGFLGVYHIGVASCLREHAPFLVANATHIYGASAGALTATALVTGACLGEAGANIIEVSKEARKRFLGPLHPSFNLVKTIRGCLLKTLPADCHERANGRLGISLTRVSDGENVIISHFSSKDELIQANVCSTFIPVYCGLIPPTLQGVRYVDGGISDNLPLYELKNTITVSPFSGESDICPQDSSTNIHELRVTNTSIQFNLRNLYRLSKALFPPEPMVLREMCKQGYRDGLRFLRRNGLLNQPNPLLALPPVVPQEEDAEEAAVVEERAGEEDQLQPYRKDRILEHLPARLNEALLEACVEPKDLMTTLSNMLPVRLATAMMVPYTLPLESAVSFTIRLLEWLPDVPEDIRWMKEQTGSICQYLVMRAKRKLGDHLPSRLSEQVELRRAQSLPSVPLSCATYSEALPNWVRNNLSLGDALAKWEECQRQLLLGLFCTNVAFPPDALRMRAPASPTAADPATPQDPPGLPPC
T2 sequence (P0C548 whole entry): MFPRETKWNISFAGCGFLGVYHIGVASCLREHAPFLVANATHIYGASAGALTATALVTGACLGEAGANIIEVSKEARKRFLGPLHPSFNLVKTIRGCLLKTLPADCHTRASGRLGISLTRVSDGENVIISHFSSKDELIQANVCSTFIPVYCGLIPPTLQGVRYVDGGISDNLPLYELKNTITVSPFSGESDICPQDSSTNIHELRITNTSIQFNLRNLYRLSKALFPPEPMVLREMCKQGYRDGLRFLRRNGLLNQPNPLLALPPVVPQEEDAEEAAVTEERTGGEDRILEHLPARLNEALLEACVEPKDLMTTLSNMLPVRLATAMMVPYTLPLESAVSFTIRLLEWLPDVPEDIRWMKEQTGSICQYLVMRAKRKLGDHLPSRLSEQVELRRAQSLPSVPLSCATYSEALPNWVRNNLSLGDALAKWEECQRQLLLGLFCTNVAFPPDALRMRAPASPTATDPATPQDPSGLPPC

| Structure (SMILES) | inhibition of TAG hydrolase activity (dog ATGL; Atglistatin (Ai) 40 μM) | inhibition of TAG hydrolase activity (mouse ATGL; Atglistatin (Ai) 40 μM) | inhibition of TAG hydrolase activity (marmoset ATGL; Atglistatin (Ai) 40 μM) | inhibition of TAG hydrolase activity (goat ATGL; Atglistatin (Ai) 40 μM) | inhibition of TAG hydrolase activity (rat ATGL; Atglistatin (Ai) 40 μM) | reduction in TAG hydrolase activity (dog ATGL; NG-497 50 μM) | reduction in TAG hydrolase activity (mouse ATGL; NG-497 50 μM) | reduction in TAG hydrolase activity (marmoset ATGL; NG-497 50 μM) | reduction in TAG hydrolase activity (goat ATGL; NG-497 50 μM) | reduction in TAG hydrolase activity (rat ATGL; NG-497 50 μM) |
| --- | --- | --- | --- | --- | --- | --- | --- | --- | --- | --- |
| CN(C)C(=O)Nc1cccc(-c2ccc(N(C)C)cc2)c1 [Atglistatin, reference compound] | inhibited | inhibited | inhibited | inhibited | inhibited | – | – | – | – | – |
| CCOc1ccc(-c2cc(OC)cc(C(=O)OC(C)C)n2)cc1 [NG-497] | – | – | – | – | – | less than 20% | less than 20% | less than 20% | less than 20% | less than 20% |
